Results on 2 compounds are retold here after patent US12178810B2 (priority 2016, dated 2024).

The test system of series [1] is Healthy human male volunteers. The experiment in a line: Retrospective analysis of the Phase 1 DDI study: heart rate and blood pressure at rest. The series is classed as in vivo. The source says:
FIG. 2. […] By ‘t’ test—Wilcoxon matched-pairs signed rank test.
(§1) Healthy human male volunteers, 18-50 years of age. A total of 14 subjects were included in the study.
(§2) Two consecutive study periods separated by a washout period of at least three days. The sequence of events was the same for all subjects.
Particularly, the effect of tesofensine-metoprolol on heart rate and blood pressure at rest, was investigated.

In the next series the test system is healthy male subjects. Conditions: metoprolol alone; cited from earlier work.
Another series has as its system obese patients. The settings on record: long-term treatment, corrected for placebo and diet effects; cited from earlier work.
In another series the target is T1, CYP2D6 (Homo sapiens, UniProt P10635).
T1 construct: Healthy human male volunteers, 18-50 years of age; A total of 14 subjects were included in the study; from tissue; host or cells: in vivo, healthy human male volunteers (endogenous enzyme)
In words: Phase 1 drug-drug interaction (DDI) study with metoprolol: metoprolol pharmacokinetics without and with tesofensine at steady state. Conditions: metoprolol 50 mg single dose after 14 days tesofensine vs metoprolol alone. The series is classed as in vivo.
Text: FIG. 1. PK of metoprolol after a single dosing in absence and presence of tesofensine at steady state.
as §1, §2

T1 sequence (P10635 whole entry): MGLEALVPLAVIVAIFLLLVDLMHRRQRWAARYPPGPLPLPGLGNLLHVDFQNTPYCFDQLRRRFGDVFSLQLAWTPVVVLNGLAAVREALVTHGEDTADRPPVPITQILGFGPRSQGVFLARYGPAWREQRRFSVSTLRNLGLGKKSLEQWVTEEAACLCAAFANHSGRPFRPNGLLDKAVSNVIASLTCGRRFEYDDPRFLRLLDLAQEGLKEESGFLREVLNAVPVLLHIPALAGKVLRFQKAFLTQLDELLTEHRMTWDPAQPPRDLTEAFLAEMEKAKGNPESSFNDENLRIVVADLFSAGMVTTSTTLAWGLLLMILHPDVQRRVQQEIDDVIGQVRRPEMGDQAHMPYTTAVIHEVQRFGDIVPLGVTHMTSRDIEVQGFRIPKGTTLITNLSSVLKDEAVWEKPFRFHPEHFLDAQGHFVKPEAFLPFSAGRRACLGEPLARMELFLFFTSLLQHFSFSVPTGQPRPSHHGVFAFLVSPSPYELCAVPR

For `COCCc1ccc(OCC(O)CNC(C)C)cc1` (stereo not shown) [metoprolol, 1-(Isopropylamino)-3-[4-(2-methoxyethyl)-phenoxy]-propan-2-ol], in series [1] (day 14, tesofensine treated subjects, 7 hours after metoprolol), the “effect on tesofensine-induced increase in heart rate, 7 hours after single metoprolol dose” value is “normalize the tesofensine-induced increase in heart rate”. For the same compound, the “effect on heart rate, ~24 hours after single metoprolol dose” value in series [1] (day 15, tesofensine treated subjects, ~24 hours after metoprolol) is recorded as “disappeared”. For the same compound, in the series on healthy male subjects, the “decrease in supine diastolic blood pressure” value was “about 4 mmHg” and the “decrease in supine systolic blood pressure” value is listed as “about 4 mmHg”.

With `CCOC[C@@H]1[C@@H](c2ccc(Cl)c(Cl)c2)C[C@@H]2CC[C@H]1N2C` [tesofensine, (1R,2R,3S,5S)-3-(3,4-dichlorophenyl)-2-(ethoxymethyl)-8-methyl-8-azabicyclo[3.2.1]octane], in series [1] (tesofensine only, day 14, p<0.01 vs prelevel), the “heart rate after 14 days of tesofensine vs prelevel” value is reported as “Increase in heart rate”. Further, the “diastolic BP after 14 days of tesofensine treatment” value in series [1] (tesofensine only, vs pre-treatment) was “essentially not altered”. Moreover, the “systolic BP after 14 days of tesofensine treatment” value in series [1] (tesofensine only, vs pre-treatment, not significant) is “increase systolic BP slightly”. The weight loss entry in the series with obese patients is listed as “about 10%”. In addition, on CYP2D6, the “effect on metoprolol Cmax” value is recorded as “no effect” and the “effect on metoprolol Tmax” value was “no effect”.
